Key:
[1] = Spleen weight in the mice tested in Tests 11-18; assay type: in vivo, mouse
[2] = test system: HLA-A*24:02 transgenic mouse; assay: Test 8: in vivo adjuvant activity, vaccine e (Peptide SEQ ID No. 18), IFNγ ELISPOT; settings: added to vaccine e; 0.4 nmol per body, twice; FIG. 5
Experimental: Evaluation of In Vivo Adjuvant Activity in HLA-A*24:02 Transgenic Mouse
The in vivo adjuvant activity of the compound of Example 1 was evaluated in the following procedure. To a vaccine prepared by mixing Peptide SEQ ID No. 18 prepared in Reference example 20 with Montanide ISA 51 VG (hereinafter, referred to as “vaccine e”) was added the compound prepared in Example 1 to prepare a vaccine. The vaccine was administered to a HLA-A*24:02 transgenic mouse, and the adjuvant activity of the vaccine was evaluated by the method of testing antigen-specific CTL induction. The TYAGCLSQIF in Peptide SEQ ID No. 18 corresponds to an antigen peptide derived from an HLA-A*24:02-restricted Or7c1 protein.
The character for inducing CTLs specific to the antigen peptide (SEQ ID No. 18) by vaccine e was evaluated by measuring whether IFNγ can be produced upon stimulation of splenocytes from the mouse with the peptide. In addition, the character for exerting in vivo adjuvant activity by the compound in Example 1 was evaluated by comparing the number of CTLs induced by vaccine e and the number of CTLs induced by the vaccine prepared by adding the compound prepared in Example 1 to vaccine e, and checking presence or absence of the increase on the number.
Specifically, Peptide of SEQ ID No. 18 was dissolved in DMSO, and then diluted with water for injection to concentrations of 3 mg/mL. […]

[3] = test system: HLA-A*02:01/HLA-DRB1*01:01 transgenic mouse; assay: Test 19: in vivo adjuvant activity (CTL and helper T-cell induction), cocktail vaccine n, IFNγ ELISPOT; settings: added to cocktail vaccine n, 0.04 nmol or 0.4 nmol per body, twice
Experimental: Evaluation of In Vivo Adjuvant Activity in HLA-A*02:01/HLA-DRB1*01:01 Transgenic Mouse
The in vivo adjuvant activity of the compound of Example 1 was evaluated in the following procedure. To a cocktail vaccine comprising Peptide SEQ ID No. 1 prepared in Reference example 1 and Peptide SEQ ID No. 17 prepared in Reference example 20 with a preliminarily-emulsified composition (hereinafter, referred to as “cocktail vaccine n”) was added the compound prepared in Example 1 to prepare each vaccine. The vaccine was administered to a HLA-A*02:01/HLA-DRB1*01:01 transgenic mouse (C57BL/6CrHLA-A2.1DR1), and the adjuvant activity of each vaccine was evaluated by the method of testing antigen-specific CTL and antigen-specific helper T-cell induction. Peptide SEQ ID No. 17 is a helper peptide derived from WT1 protein.
Specifically, Peptide SEQ ID No. 1 and Peptide SEQ ID No. 17 were dissolved in DMSO, and then diluted with water for injection to concentrations of Peptide SEQ ID No. 1 of 2 mg/mL and Peptide SEQ ID No. 17 of 4 mg/mL. The prepared peptide dilution was mixed with an equal volume of the preliminary emulsified composition prepared like Test 4 to give an emulsified product, cocktail vaccine n. […] Then, after removal of the supernatant from the wells, stained spots on the ELISPOT plate were counted.

## CCCCCNc1nc(N)nc(C)c1Cc1ccc(CN(C)CCOCCOCCOCCOCCO)cc1OC [Example 1, 1-(4-{[2-amino-4-methyl-6-(pentylamino)pyrimidin-5-yl]methyl}-3-methoxyphenyl)-2-methyl-5,8,11,14-tetraoxa-2-azahexadecan-16-ol·trifluoroacetate]
[1]; mice tested in Tests 11-13 (emulsified compositions), FIG. 26
  spleen weight: does not induce a pronounced increase of spleen weight
[1]; mice tested in Tests 14 and 15 (oily suspension, hydrogel), FIG. 27
  spleen weight: does not induce a pronounced increase of spleen weight
[1]; mice tested in Tests 16-18 (liposome formulations), FIG. 28
  spleen weight: does not induce a pronounced increase of spleen weight
[2]
  CTL counts responsive to Peptide of SEQ ID No. 18 compared with adding no compound: more
[3]; FIG. 23
  CTL counts responsive to Peptide SEQ ID No. 1 compared with adding no compound: more
[3]; FIG. 24
  helper T-cell counts responsive to Peptide SEQ ID No. 17 compared with adding no compound: more

From patent US12427192B2, “Water soluble adjuvant and composition containing same” (Sumitomo Pharma Co., Ltd., priority 2019, dated 2025)
